{"source": "patent US6054464A", "about": "(priority 1996, dated 2000)", "molecular_target": "α7 nAChR subtype (Rattus norvegicus, UniProt Q05941)", "sequence (Q05941 23-502 limits assumed)": "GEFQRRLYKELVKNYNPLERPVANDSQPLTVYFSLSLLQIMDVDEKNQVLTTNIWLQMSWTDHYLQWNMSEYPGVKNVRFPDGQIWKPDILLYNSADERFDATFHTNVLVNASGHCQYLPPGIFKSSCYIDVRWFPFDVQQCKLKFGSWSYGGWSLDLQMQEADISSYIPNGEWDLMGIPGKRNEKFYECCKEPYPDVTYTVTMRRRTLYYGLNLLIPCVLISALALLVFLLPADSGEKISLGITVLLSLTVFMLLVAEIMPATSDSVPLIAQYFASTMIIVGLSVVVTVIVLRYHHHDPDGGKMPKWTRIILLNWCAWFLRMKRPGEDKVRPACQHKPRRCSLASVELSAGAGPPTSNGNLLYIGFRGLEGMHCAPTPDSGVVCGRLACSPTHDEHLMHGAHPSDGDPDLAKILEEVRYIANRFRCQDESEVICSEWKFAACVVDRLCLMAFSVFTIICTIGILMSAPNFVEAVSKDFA", "assay_type": "binding", "data": [{"substance": "[^125 I]-α-Bungarotoxin [[^125 I]-α-BTX]", "values": [{"measurement": "Kd", "result": 1.67, "unit": "nM"}]}]}
